Results: article PMC12548419 (Journal of Virology, 2025)
“And” between values parts separate entries of the source, which are not always exact repeats. Equal entries are not always repeated. Where two headings read alike, the source gives them in different places.

Experiments:
SFTSV [1] = assay: microbe, parasite or virus in culture; type: cell-based; settings: for EC50: Severe fever with thrombocytopenia syndrome virus
LCMV [2] = assay: microbe, parasite or virus in culture; type: cell-based, lymphocytic choriomeningitis virus (strain Armstrong); settings: for EC50: Mammarenavirus choriomeningitidis
in vivo [3] = settings: Sprague-Dawley, rat, po, 10 mg/kg
in vivo [4] = settings: cynomolgus monkey, po, 5 mg/kg
SFTSV [5] = tested on: SFTSV; parameters: species or system A129 mice; settings: mouse, in vivo
LCMV [6] = tested on: LCMV; parameters: species or system C57BL/6-Prf1^tm1Sdz/J mice; settings: mouse, in vivo
SFTSV [7] = type: cell-based, severe fever with thrombocytopenia syndrome virus
LCMV [8] = type: cell-based, lymphocytic choriomeningitis virus
[9] = Sprague-Dawley, rat, in vivo, po, 21 mg/kg
[10] = cynomolgus monkey, in vivo, po, 10.7 mg/kg
[11] = A549, 48 h, read-out: EC50 (μM) mean ± sd SFTSV A549
[12] = Huh-7, 48 h, read-out: EC50 (μM) mean ± sd SFTSV Huh-7
[13] = Vero, 48 h, read-out: EC50 (μM) mean ± sd SFTSV Vero
[14] = read-out: EC50 range for SFTSV over all cell lines evaluated
[15] = A549, 48 h, read-out: EC50 (μM) mean ± sd LCMV A549
[16] = BHK-21, 48 h, read-out: EC50 (μM) mean ± sd LCMV BHK-21
[17] = Vero, 48 h, read-out: EC50 (μM) mean ± sd LCMV Vero
[18] = read-out: EC50 range for LCMV over all cell lines evaluated

With `O=c1ccn([C@@H]2O[C@](F)(CO)[C@@H](O)[C@H]2O)c(=O)[nH]1` [4′-FlU, 4′-Fluorouridine] the “SI values SFTSV A549” value (SFTSV [1]) was over 210.67, the “SI values SFTSV Huh-7” value (SFTSV [1]) was over 214.23 and the “SI values SFTSV Vero” value (SFTSV [1]) was over 245.98. It also gave an EC50 (SFTSV [1]; [11]) of 2.37 ± 0.16 µM, an EC50 (SFTSV [1]; [12]) of 2.33 ± 0.51 µM and an EC50 (SFTSV [1]; [13]) of 2.03 ± 0.82 µM. The EC50 (SFTSV [1]; [14]) was 2.03 to 2.37 µM, the “SI values LCMV A549” value (LCMV [2]) was over 4826.57 and the “SI values LCMV BHK-21” value (LCMV [2]) was over 3389.68. For the same compound, the “SI values LCMV Vero” value (LCMV [2]) was over 12697.20, the EC50 (LCMV [2]; [15]) was 0.1 ± 0.01 µM and the EC50 (LCMV [2]; [16]) was 0.15 ± 0.05 µM. The EC50 (LCMV [2]; [17]) was 0.04 ± 0.01 µM, the EC50 (LCMV [2]; [18]) was 0.04 to 0.15 µM and the AUC0-t (in vivo [3]) was 7280 ng·h/mL. For the same compound, the Cmax (in vivo [3]) was 1370 ng/mL, the half-life (in vivo [3]) was 203 ± 84.6 min and the AUC0-t (in vivo [4]) was 10700 ng·h/mL. For the same compound, the Cmax (in vivo [4]) was 1500 ng/mL, the half-life (in vivo [4]) was 409 ± 27.6 min and the CC50 (in vitro) was over 500 µM.

With `NC(=O)c1nc(F)c[nH]c1=O` [T-705, favipiravir] the “SI values SFTSV A549” value (SFTSV [1]) was over 1.79, the “SI values SFTSV Huh-7” value (SFTSV [1]) was over 160.32 and the “SI values SFTSV Vero” value (SFTSV [1]) was over 24.23. The EC50 (SFTSV [1]; [11]) was 280 µM, the EC50 (SFTSV [1]; [12]) was 3.12 µM and the EC50 (SFTSV [1]; [13]) was 20.6 µM. For the same compound, the “SI values LCMV A549” value (LCMV [2]) was over 7.36, the “SI values LCMV Vero” value (LCMV [2]) was over 5.64 and the EC50 (LCMV [2]; [15]) was 68 µM. The EC50 (LCMV [2]; [17]) was 88.6 µM, the “leukopenia, lymphocytopenia and reduction in platelet count (hematological parameters)” value (SFTSV [5]) was “relieved” and the lung pathology scores (SFTSV [5]) was “significantly lower pathology scores”. The spleen histopathology scores (SFTSV [5]) was “substantially reduced”, the “splenomegaly (spleen-to-body weight ratio)” value (SFTSV [5]) was “significantly ameliorated” and the “virus load in the liver, spleen, lung, and kidney (qRT-PCR and immunoplaque assays)” value (SFTSV [5]) was “significant reductions”. For the same compound, the “infectious viral titers in the spleen (immunoplaque assays)” value (SFTSV [5]; 300 mg/kg) was “marked decreases”, the “plasma levels of IFN-γ, TNF-α, IL-1β and IL-6” value (SFTSV [5]; 300 mg/kg) was “significantly reduced” and the “viral RNA copies in the spleen (qRT-PCR)” value (SFTSV [5]; 300 mg/kg) was “no statistically significant reduction”. The body weight (SFTSV [5]; po, 300 mg/kg) was “slight initial weight loss followed by weight recovery at 5 days post-infection”, the survival (SFTSV [5]; po, 300 mg/kg) was “survived” and the body weight (LCMV [6]) was “parallel body weight with that of the vehicle-treated group”. For the same compound, the “spleen damage (spleen size, pathology score, H&E staining)” value (LCMV [6]) was “marked pathological lesions”, the “viral RNA copies in the liver, spleen, lung, and kidney (qRT-PCR)” value (LCMV [6]) was “no reduction in the number of viral RNA copies was observed except in the lungs” and the “viral titer in the liver, spleen, lung, and kidney (immunoplaque assay)” value (LCMV [6]) was “reduced the viral titer in the tissues”. The “plasma IFN-γ and granulocyte colony-stimulating factor” value (LCMV [6]; 300 mg/kg) was “no significant effect”, the survival (LCMV [6]; po, 300 mg/kg) was “no survivors remaining by the end of the study” and the CC50 (in vitro) was over 500 µM.

In the case of `CC(=O)OC[C@@]1(F)O[C@@H](n2ccc(=O)n(COC(=O)c3cccnc3)c2=O)[C@H](OC(C)=O)[C@@H]1OC(C)=O` [VV251], the “SI values SFTSV A549” value (SFTSV [1]) is reported as over 96.94, the “SI values SFTSV Vero” value (SFTSV [1]) is reported as over 168.75 and the EC50 (SFTSV [1]; [11]) is reported as 5.16 µM. The EC50 (SFTSV [1]; [12]) was 0.65 µM, the EC50 (SFTSV [1]; [13]) was 2.96 µM and the EC50 (SFTSV [1]; [14]) was 0.65 to 5.16 µM. For the same compound, the “SI values LCMV A549” value (LCMV [2]) was over 6559.96, the “SI values LCMV BHK-21” value (LCMV [2]) was over 3177.56 and the “SI values LCMV Vero” value (LCMV [2]) was over 3628.85. For the same compound, the “fold lower EC50 than T-705 against LCMV” value (LCMV [2]) was 849.6 fold and 632.9 fold, the EC50 (LCMV [2]; [15]) was 0.08 µM and the EC50 (LCMV [2]; [16]) was 0.16 ± 0.05 µM. The EC50 (LCMV [2]; [17]) was 0.14 µM, the EC50 (LCMV [2]; [18]) was 0.08 to 0.16 µM and the “antiviral effect on addition of exogenous natural nucleosides” value (SFTSV [7]) was “competitively reversed by supplementation with exogenous uridine and cytidine”. For the same compound, the “antiviral effect on addition of exogenous natural nucleosides” value (LCMV [8]) was “competitively reversed by supplementation with exogenous uridine and cytidine”, the “leukopenia, lymphocytopenia and reduction in platelet count (hematological parameters)” value (SFTSV [5]) was “relieved” and the lung pathology scores (SFTSV [5]) was “significantly lower pathology scores”. For the same compound, the “plasma levels of IFN-γ, TNF-α, IL-1β and IL-6” value (SFTSV [5]) was “significantly reduced”, the spleen histopathology scores (SFTSV [5]) was “substantially reduced” and the “splenomegaly (spleen-to-body weight ratio)” value (SFTSV [5]) was “significantly ameliorated”. The “virus load in the liver, spleen, lung, and kidney (qRT-PCR and immunoplaque assays)” value (SFTSV [5]) was “significant reductions”, the body weight (SFTSV [5]; po, 1 mg/kg) was “significant reduction in body weight” and the survival (SFTSV [5]; po, 1 mg/kg) was “only one mouse surviving until the end of the study”. The mice that died (SFTSV [5]; po, 5 mg/kg) was “one”, the body weight (SFTSV [5]; po, 10 mg/kg) was “remained stable” and the body weight (LCMV [6]) was “remained stable”. For the same compound, the “hematological parameters (white blood cell, platelet, lymphocyte count)” value (LCMV [6]) was “ameliorated viremia induced by LCMV infection”, the “number of viral RNA copies relative to the vehicle group” value (LCMV [6]) was “more than one order of magnitude lower” and the “plasma IFN-γ and granulocyte colony-stimulating factor” value (LCMV [6]) was “statistically significant reduction”. For the same compound, the “spleen damage (spleen size, pathology score, H&E staining)” value (LCMV [6]) was “ameliorated spleen damage efficiently”, the “viral RNA copies in the liver, spleen, lung, and kidney (qRT-PCR)” value (LCMV [6]) was “significantly decreased” and the “viral titer in the liver, spleen, lung, and kidney (immunoplaque assay)” value (LCMV [6]) was “significantly decreased”. The AUC0-t [9] was 9,714 ng·h/mL, the Cmax [9] was 1,598 ng/mL and the T1/2 [9] was 6.34 ± 0.75 h. For the same compound, the AUC0-t [10] was 14,922 ng·h/mL, the Cmax [10] was 2,358 ng/mL and the T1/2 [10] was 5.45 ± 0.82 h. For the same compound, the CC50 (in vitro) was over 500 µM.
